The values that follow come from US8921576B2, “Spiroindoline compound, and medicinal agent comprising same” (Kowa Company, Ltd., priority 2011, dated 2014).

The target in the test is T1, GST-GK derived from human liver GK (Homo sapiens, UniProt P35557).
T1 construct: made in house; host or cells: Escherichia coli DH5α
T1 sequence (P35557 1-466 isoform P35557-2): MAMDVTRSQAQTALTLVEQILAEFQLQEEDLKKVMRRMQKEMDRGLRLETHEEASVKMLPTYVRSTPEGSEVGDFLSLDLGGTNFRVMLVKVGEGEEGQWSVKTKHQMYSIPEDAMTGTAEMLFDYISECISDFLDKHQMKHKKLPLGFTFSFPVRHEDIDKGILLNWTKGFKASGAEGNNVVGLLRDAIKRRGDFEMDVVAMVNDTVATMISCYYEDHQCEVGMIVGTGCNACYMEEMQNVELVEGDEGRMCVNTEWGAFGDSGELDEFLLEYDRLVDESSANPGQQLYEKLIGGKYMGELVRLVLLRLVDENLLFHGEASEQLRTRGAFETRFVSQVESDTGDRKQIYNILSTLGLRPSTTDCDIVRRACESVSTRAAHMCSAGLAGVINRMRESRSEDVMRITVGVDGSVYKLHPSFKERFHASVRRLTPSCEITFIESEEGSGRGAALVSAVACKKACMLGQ
Description: In vitro GK activity measurement test (G6PDH-coupled, OD340). To be noted: test compound 1 μmol/L; glucose 2.5 mmol/L; 25° C.; OD340 slope with compound / without compound; read-out: GK activation rate (%). Type of test: biochemical. From the text:
cDNA (GenBank Accession No. NM_033507, human glucokinase, variant 2) encoding human liver-type GK polypeptide was cloned by performing a polymerase chain reaction (hereinafter referred to as “PCR”) using a human liver cDNA library (Human liver QUICK-Clone cDNA, TAKARA BIO INC.), and the thus cloned cDNA was then introduced into an expression vector (pGEX-3X, GE Healthcare Japan) for glutathione S transferase (hereinafter referred to as GST) fusion protein expression. The resulting vector was introduced into Escherichia coli (Competent high DH5α, Toyobo Co., Ltd.), and the transformed Escherichia coli was then cultured at 37° C. Thereafter, Isopropyl β-D-1-thiogalactopyranoside (final concentration: 1 mmol/L, Sigma Aldrich Japan) was added to the culture, and the obtained mixture was then cultured at 30° C. for 3 hours. Thereafter, a cell mass was recovered. The recovered cell mass was subjected to freezing-and-thawing, and the resulting cell mass was then suspended in phosphate buffer with final concentration of 1% Triton X-100, followed by disintegration with an ultrasonic disruptor. The homogenate was centrifuged at 33,200 rpm at 4° C. for 1 hour. Thereafter, the supernatant was recovered, and a GST-GK fusion protein was then purified using a glutathione column (GSTrap FF, GE Healthcare Japan). The obtained GST-GK fusion protein was divided into some portions each having a small volume, and the thus divided proteins were then preserved at −80° C.
A GK assay method was carried out at 25° C. at a final incubation volume of 100 μL in a flat-bottom 96-well assay plate. An assay buffer comprised 25 mmol/L Hepes buffer (pH 7.1), 25 mmol/L KCl, 2.5 mmol/L or 10 mmol/L D-glucose, 5 mmol/L ATP, 1 mmol/L nicotinamide adenine dinucleotide phosphate (abbreviated as NADP), 2 mmol/L MgCl2, 1 mmol/L dithiothreitol (DTT), 2 units/mL glucose-6 phosphate dehydrogenase (G6PDH), and 1 μg/mL GST-GK derived from human liver GK. ATP, G6PDH, and NADP were purchased from Roche Diagnostics. […] The thus mixed solution was preincubated in an incubator in which the temperature was controlled at 25° C. for 15 minutes. Subsequently, the reaction was initiated by adding 10 μL of the GST-GK solution to the reaction mixture, resulting in a final concentration of 0.1 μg/mL. After initiation of the reaction, an increase in the optical concentration at 340 nm (OD340) was monitored with a microplate spectrophotometer (Varsamax, Molecular Devices Japan K.K.) every 10 seconds over an incubation period of 10 minutes. An inclination of the OD340 increase was defined as raw data. The GK activating rate was indicated as a numerical value obtained from the expression: (Inclination of OD340 increase by addition of the test compound)/(inclination of OD340 increase without addition of the test compound). The results of the GK activating rate obtained at a test compound concentration of 1 μmol/L under the condition of a glucose concentration of 2.5 mmol/L are shown in the following table.
Regarding `CC(=O)N1CCC2(C1)CN(C(=O)Nc1ncc(Cl)s1)c1ccc(Br)cc12` (stereo not shown) [Example 3, 1′-acetyl-5-bromo-N-(5-chlorothiazol-2-yl)spiro[indoline-3,3′-pyrrolidine]-1-carboxamide], the activity at 1 µM came to 716%.

For the compound `COC(=O)N1CCC2(C1)CN(C(=O)Nc1ncc(Cl)s1)c1ccc(Br)cc12` (stereo not shown) [Example 13, Methyl 5-bromo-1-((5-chlorothiazol-2-yl)carbamoyl)spiro[indoline-3,3′-pyrrolidine]-1′-carboxylate], the activity at 1 µM worked out at 678%.

With `NCC(=O)N1CCC2(C1)CN(C(=O)Nc1ncc(Cl)s1)c1ccc(Br)cc12` (stereo not shown) [Example 20, 1′-(2-aminoacetyl)-5-bromo-N-(5-chlorothiazol-2-yl)spiro[indoline-3,3′-pyrrolidine]-1-carboxamide], the activity at 1 µM was 429%.

With `CNC(=O)C(=O)N1CCC2(C1)CN(C(=O)Nc1ncc(Cl)s1)c1ccc(Cl)cc12` (stereo not shown) [Example 46, 5-chloro-N-(5-chlorothiazol-2-yl)-1′-(2-(methylamino)-2-oxoacetyl)spiro[indoline-3,3′-pyrrolidine]-1-carboxamide], the activity at 1 µM was 499%.

Consider `CC(=O)OCC(=O)N1CC[C@@]2(C1)CN(C(=O)Nc1ncc(Cl)s1)c1ccc(Cl)cc12` [Example 52, (R)-2-(5-chloro-1-((5-chlorothiazol-2-yl)carbamoyl)spiro[indoline-3,3′-pyrrolidin]-1′-yl)-2-oxoethyl acetate], for which the activity at 1 µM came to 531%.

Turning to `COC(=O)N1CCC2(C1)CN(C(=O)Nc1ncc(SCC(=O)N(C)C)s1)c1ccc(Cl)cc12` (stereo not shown) [Example 131, methyl 5-chloro-1-((5-((2-(dimethylamino)-2-oxoethyl)thio)thiazol-2-yl)carbamoyl)spiro[indoline-3,3′-pyrrolidine]-1′-carboxylate], the activity at 1 µM was 411%.

As to `COC(=O)N1CCC2(C1)CN(C(=O)Nc1ncc(SC(C)CO)s1)c1ccc(Cl)cc12` (stereo not shown) [Example 141, methyl 5-chloro-1-((5-((1-hydroxypropan-2-yl)thio)thiazol-2-yl)carbamoyl)spiro[indoline-3,3′-pyrrolidine]-1′-carboxylate], the activity at 1 µM is 574%.

For the compound `CNC(=O)CCSc1cnc(NC(=O)N2CC3(CCN(C(=O)OC)C3)c3cc(Cl)ccc32)s1` (stereo not shown) [Example 151, methyl 5-chloro-1-((5-((3-(methylamino)-3-oxopropyl)thio)thiazol-2-yl)carbamoyl)spiro[indoline-3,3′-pyrrolidine]-1′-carboxylate], the activity at 1 µM stood at 656%.

Turning to `COC(=O)N1CCC2(C1)CN(C(=O)Nc1ncc(SCCC(=O)N3CCOCC3)s1)c1ccc(Cl)cc12` (stereo not shown) [Example 154, methyl 5-chloro-1-((5-((3-morpholino-3-oxopropyl)thio)thiazol-2-yl)carbamoyl)spiro[indoline-3,3′-pyrrolidine]-1′-carboxylate], the activity at 1 µM stood at 473%.

For `COC(=O)N1CCC2(C1)CN(C(=O)Nc1ncc(SCCCO)s1)c1ccc(Cl)cc12` (stereo not shown) [Example 161, Methyl 5-chloro-1-((5-((3-hydroxypropyl)thio)thiazol-2-yl)carbamoyl)spiro[indoline-3,3′-pyrrolidine]-1′-carboxylate], the activity at 1 µM amounted to 514%.

As to `COCCCSc1cnc(NC(=O)N2CC3(CCN(C(=O)OC)C3)c3cc(Cl)ccc32)s1` (stereo not shown) [Example 162, Methyl 5-chloro-1-((5-((3-methoxypropyl)thio)thiazol-2-yl)carbamoyl)spiro[indoline-3,3′-pyrrolidine]-1′-carboxylate], the activity at 1 µM worked out at 484%.

Turning to `CNC(=O)CCCSc1cnc(NC(=O)N2CC3(CCN(C(=O)OC)C3)c3cc(Cl)ccc32)s1` (stereo not shown) [Example 164, methyl 5-chloro-1-((5-((4-(methylamino)-4-oxobutyl)thio)thiazol-2-yl)carbamoyl)spiro[indoline-3,3′-pyrrolidine]-1′-carboxylate], the activity at 1 µM amounted to 567%.

For the compound `CONC(=O)CCCSc1cnc(NC(=O)N2CC3(CCN(C(=O)OC)C3)c3cc(Cl)ccc32)s1` (stereo not shown) [Example 168, methyl 5-chloro-1-((5-((4-(methoxyamino)-4-oxobutyl)thio)thiazol-2-yl)carbamoyl)spiro[indoline-3,3′-pyrrolidine]-1′-carboxylate], the activity at 1 µM amounted to 462%.

Consider `COC(=O)N1CCC2(C1)CN(C(=O)Nc1ncc(SCCCC(=O)NO)s1)c1ccc(Cl)cc12` (stereo not shown) [Example 169, methyl 5-chloro-1-((5-((4-(hydroxyamino)-4-oxobutyl)thio)thiazol-2-yl)carbamoyl)spiro[indoline-3,3′-pyrrolidine]-1′-carboxylate], for which the activity at 1 µM is 532%.

With `COC(=O)N1CCC2(C1)CN(C(=O)Nc1ncc(SCCCC(=O)N3CC(O)C3)s1)c1ccc(Cl)cc12` (stereo not shown) [Example 170, methyl 5-chloro-1-((5-((4-(3-hydroxyazetidin-1-yl)-4-oxobutyl)thio)thiazol-2-yl)carbamoyl)spiro[indoline-3,3′-pyrrolidine]-1′-carboxylate], the activity at 1 µM was determined as 506%.

Regarding `COC(=O)N1CCC2(C1)CN(C(=O)Nc1ncc(SCCCNC(C)=O)s1)c1ccc(Cl)cc12` (stereo not shown) [Example 177, methyl 1-((5-((3-acetamidopropyl)thio)thiazol-2-yl)carbamoyl)-5-chlorospiro[indoline-3,3′-pyrrolidine]-1′-carboxylate], the activity at 1 µM was 530%.

Regarding `COC(=O)N1CCC2(C1)CN(C(=O)Nc1ncc(SCCCNS(=O)(=O)C3CC3)s1)c1ccc(Cl)cc12` (stereo not shown) [Example 179, methyl 5-chloro-1-((5-((3-(cyclopropanesulfonamido)propyl)thio)thiazol-2-yl)carbamoyl)spiro[indoline-3,3′-pyrrolidine]-1′-carboxylate], the activity at 1 µM was 669%.

Consider `COC(=O)N1CCC2(C1)CN(C(=O)Nc1ncc(SCCCN(C)C)s1)c1ccc(Cl)cc12` (stereo not shown) [Example 180, Methyl 5-chloro-1-((5-((3-(dimethylamino)propyl)thio)thiazol-2-yl)carbamoyl)spiro[indoline-3,3′-pyrrolidine]-1′-carboxylate], for which the activity at 1 µM was 442%.

In the case of `COC(=O)N1CCC2(C1)CN(C(=O)Nc1ncc(Oc3cccc(C(N)=O)c3)s1)c1ccc(Cl)cc12` (stereo not shown) [Example 186, methyl 1-((5-(3-carbamoylphenoxy)thiazol-2-yl)carbamoyl)-5-chlorospiro[indoline-3,3′-pyrrolidine]-1′-carboxylate], the activity at 1 µM came out at 583%.

Consider `COc1ccc2nc(NC(=O)N3CC4(CCN(C(C)=O)C4)c4cc(S(=O)(=O)NCc5ccccc5OC)ccc43)sc2n1` (stereo not shown) [Example 263, 1′-Acetyl-5-(N-(2-methoxybenzyl)sulfamoyl)-N-(5-methoxythiazolo[5,4-b]pyridin-2-yl)spiro[indoline-3,3′-pyrrolidine]-1-carboxamide], for which the activity at 1 µM is 597%.

As for `COc1ccc2nc(NC(=O)N3CC4(CCN(C(C)=O)C4)c4cc(S(=O)(=O)NCc5ccccc5F)ccc43)sc2n1` (stereo not shown) [Example 269, 1′-Acetyl-5-(N-(2-fluorobenzyl)sulfamoyl)-N-(5-methoxythiazolo[5,4-b]pyridin-2-yl)spiro[indoline-3,3′-pyrrolidine]-1-carboxamide], the activity at 1 µM was 640%.

For `COc1ccc2nc(NC(=O)N3CC4(CCN(C(C)=O)C4)c4cc(S(=O)(=O)NCc5ccco5)ccc43)sc2n1` (stereo not shown) [Example 271, 1′-Acetyl-5-(N-(furan-2-ylmethyl)sulfamoyl)-N-(5-methoxythiazolo[5,4-b]pyridin-2-yl)spiro[indoline-3,3′-pyrrolidine]-1-carboxamide], the activity at 1 µM stood at 578%.
